Marks after values point to notes of the source that are not given here.
Columns and labels:
hERG = target: T1, hERG (Homo sapiens, UniProt Q12809); assay: hERG Ion Channel Assay (Q-patch, hERG-CHO cells); type: cell-based; conditions: human, CHO cells stably transfected with hERG (hERG-CHO), pH 7.4, 30 μM
T1 construct: expressed in transfected cells; host or cells: Chinese Hamster Ovary cells (hERG-CHO), stably transfected
How it was run: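 Automated whole-cell Q-patch on hERG-CHO cells (held at 30° C for 24–48 h beforehand), −80 mV holding, +20 mV for 2 s then −40 mV for 1 s to elicit tail current every 5 s. Cumulative rising concentrations, 5 min each; percent tail-current inhibition fitted to three-parameter logistic for IC50.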

[1] = Rodent pharmacokinetics study; type: in vivo, Sprague-Dawley rats; conditions: rat; for p.o. AUC: dosed at 10 mg/kg orally (‡)
[2] = test system: TK6 human lymphoblastoid cell line; assay: GreenScreen HC cytotoxicity (propidium iodide uptake); type: cell-based
Protocol: GreenScreen HC is a mammalian cell-based assay for measuring the genotoxicity and cytotoxicity of chemical compounds and mixtures.
Cytotoxicity is measured in the GreenScreen assay alongside genotoxicity and the results of the cytotoxicity assessment are used to normalise the genotoxicity measurements as described above.
In the GreenScreen HC assay, cell viability is assessed using a propidium iodide uptake assay. Propidium iodide is an intercalating agent and a fluorescent molecule that can be used to stain cells. It is commonly used to quantitatively assess DNA content to evaluate cell viability or DNA content in cell cycle analysis and can be used to differentiate necrotic, apoptotic and normal cells (see, e.g., Dengler et al., 1995, Anticancer Drugs, Vol. 6, No. 4, pp. 522-532). Exposure to a cytotoxic compound increases the uptake of propidium iodide, which is monitored by optical absorbance and is proportional to […]. Cytotoxic compounds are those that show an observed decrease in relative population survival below a significance threshold set at 90% compared to vehicle-treated control, at one or more test concentrations.
A dilution series of each test compound is generated in parallel in a 96-well, black microplate with an optically clear base. A standard genotoxic compound (methyl methanesulfonate, MMS) is added as an intra-plate quality control check. The plates are analysed at 24 hour and 48 hour time points using a microplate reader, which provides measurements of light absorbance and fluorescence for cells and solutions in the microplates wells.
In addition to measurements of cell viability and genotoxicity described above, the GreenScreen assay incorporates an assessment of the effects of metabolic activation in the assay, the “GreenScreen HC S9 assay”. To accomplish this, the cells are incubated both in the presence of and absence of the post-mitochondrial supernatant liver extract (known as “S9”). S9 is routinely used in genetic toxicology to supplement the test cells with mammalian phase I metabolism. To assess metabolic activation, compounds are incubated with the TK6 strain in the presence of 1% v/v S9 fraction mix for 3 hours with a subsequent 45 hour recovery time. After the recovery period, the GFP fluorescence signal and cell viability (assessed by propidium iodide uptake) are measured using a flow cytometer. Cyclophosphamide, a commonly used control in genotoxicity studies utilising metabolic activation, is used as the positive control in the assay. In the GreenScreen HC S9 assay, genotoxicity is evaluated by induction in GFP expression quantified using the mean sample fluorescence and cytotoxicity using the propidium iodide uptake assay described above. The statistically defined threshold for a positive genotoxicity result is 1.3, i.e. 30% induction over and above the baseline for the vehicle-treated control and the result is reported as positive or negative. Cytotoxic compounds are those that show an observed decrease in relative population survival below a significance threshold set at 90% compared to vehicle-treated control, at one or more test concentrations.
Stably transfected reporter cell lines were derived from the p53-competent human lymphoblastoid TK6 cell line. The reporter cell line carries an episomally replicating plasmid bearing the upstream promoter region and other regulatory sequences of the human GADD45a gene linked to a human optimised Green Fluorescent Protein (GFP) gene. The control cell line carries an identical plasmid except for the removal of 4 base pairs at the start of the EGFP gene, such that GFP is not produced. Both plasmids also carry a gene conferring resistance to hygromycin B to the cell line, allowing continued selection for plasmid presence (200 μg/mL hygromycin B; Invitrogen Corporation, Carlsbad, Calif.). […]

[3] = lowest effective concentration for loss of cell viability
[4] = dosed at 2 mg/kg intravenously (†)

T1 sequence (Q12809 whole entry): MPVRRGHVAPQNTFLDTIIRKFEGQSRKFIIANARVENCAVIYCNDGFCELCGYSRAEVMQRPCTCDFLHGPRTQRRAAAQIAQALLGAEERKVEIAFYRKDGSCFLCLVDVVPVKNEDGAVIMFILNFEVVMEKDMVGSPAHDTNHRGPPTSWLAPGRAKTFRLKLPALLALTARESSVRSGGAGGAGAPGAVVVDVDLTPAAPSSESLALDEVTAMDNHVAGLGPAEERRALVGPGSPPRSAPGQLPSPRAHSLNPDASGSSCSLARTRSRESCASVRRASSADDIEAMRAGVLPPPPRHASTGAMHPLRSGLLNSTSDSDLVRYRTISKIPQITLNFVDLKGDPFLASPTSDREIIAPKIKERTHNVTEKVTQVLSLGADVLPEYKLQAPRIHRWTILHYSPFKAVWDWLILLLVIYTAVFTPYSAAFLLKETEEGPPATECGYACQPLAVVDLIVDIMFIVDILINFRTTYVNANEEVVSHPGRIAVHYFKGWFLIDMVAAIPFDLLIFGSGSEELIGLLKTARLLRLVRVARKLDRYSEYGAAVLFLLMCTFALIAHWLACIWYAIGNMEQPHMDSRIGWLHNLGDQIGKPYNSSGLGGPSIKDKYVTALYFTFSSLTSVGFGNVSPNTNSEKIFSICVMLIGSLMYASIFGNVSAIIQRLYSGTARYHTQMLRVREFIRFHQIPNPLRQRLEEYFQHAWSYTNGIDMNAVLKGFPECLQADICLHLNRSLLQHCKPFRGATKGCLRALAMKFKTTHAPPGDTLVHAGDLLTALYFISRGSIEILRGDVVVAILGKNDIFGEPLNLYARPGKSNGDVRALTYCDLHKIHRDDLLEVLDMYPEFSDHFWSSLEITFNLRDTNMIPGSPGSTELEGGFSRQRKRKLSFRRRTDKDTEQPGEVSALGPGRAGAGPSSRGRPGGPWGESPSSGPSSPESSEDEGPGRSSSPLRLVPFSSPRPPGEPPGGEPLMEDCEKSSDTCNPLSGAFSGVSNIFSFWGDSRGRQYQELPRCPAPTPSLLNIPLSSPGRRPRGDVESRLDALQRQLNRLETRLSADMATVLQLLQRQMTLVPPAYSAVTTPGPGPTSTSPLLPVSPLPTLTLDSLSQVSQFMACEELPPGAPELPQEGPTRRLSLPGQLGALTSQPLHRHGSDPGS

Row | SMILES | inhibition at 5 min, 30 µM (hERG; hERG tail current) [%] | p.o. AUC [1] [ng·min/mL] | Cytotoxicity, LEC, 48 h, −S9 ([2]; absence of S9 fraction) [µM] | Cytotoxicity, LEC, 48 h, +S9 ([2]; presence of S9 fraction) [µM] | Cytotoxicity, LEC, 24 h [2, 3] [µM] | i.v. AUC [1, 4] [ng·min/mL] | inhibition at 5 min, 30 µM (hERG; a lab-scale batch was tested) [%] | inhibition at 5 min, 30 µM (hERG; a mid-scale batch was tested) [%] | Cytotoxicity, LEC, 24 h ([2]; lab scale batch tested in the range 1.3 mM to 0.3 pM) [µM] | Cytotoxicity, LEC, 24 h ([2]; mid scale batch tested in the range 164 μM to 0.003 μM) [µM] | Cytotoxicity, LEC, 48 h, +S9 ([2]; +S9, lab scale batch, 1.3 mM to 0.3 pM) [µM] | Cytotoxicity, LEC, 48 h, +S9 ([2]; +S9, mid scale batch, 164 μM to 0.003 μM) [µM] | Cytotoxicity, LEC, 48 h, −S9 ([2]; −S9, lab scale batch, 1.3 mM to 0.3 pM) [µM] | Cytotoxicity, LEC, 48 h, −S9 ([2]; −S9, mid scale batch, 164 μM to 0.003 μM) [µM] | i.v. AUC ([1]; dosed at 0.5 mg/kg intravenously (*))
1 | Cc1cc(S(=O)(=O)N[C@H]2CC[C@H](O)CC2)ccc1-c1ccc(F)cc1F [ABD735] | 62.5 | 8965 | 0.31 | 5 | 0.31 | – | – | – | – | – | – | – | – | – | –
2 | C[C@]1(O)CC[C@H](NS(=O)(=O)c2ccc(-c3ncc(F)cc3F)cc2)CC1 [HMC-N-02-A, 4-(3,5-Difluoropyridin-2-yl)-N-((1r,4r)-4-hydroxy-4-methylcyclohexyl)benzenesulfonamide] | 31 | – | 0.47 | 120 | 0.94 | 3053 | – | – | – | – | – | – | – | – | –
3 | C[C@]1(O)CC[C@H](NS(=O)(=O)c2ccc(-c3ncc(Cl)cc3Cl)cc2)CC1 [HMC-N-03-A, 4-(3,5-Dichloropyridin-2-yl)-N-((1r,4r)-4-hydroxy-4-methylcyclohexyl)benzenesulfonamide] | 13 | – | 0.24 | 30 | 0.94 | 5102 | – | – | – | – | – | – | – | – | –
4 | C[C@]1(O)CC[C@@H](NS(=O)(=O)c2ccc(-c3ccc(F)cc3F)cc2)CC1 [ABD899, reference compound] | – | 10740 | – | – | – | – | 100 | 53 | <0.001 | 0.64 | 0.32 | 81.9 | <0.001 | 0.08 | –
5 | C[C@]1(O)CC[C@@H](NS(=O)(=O)c2ccc(-c3c(F)cc(F)cc3F)cc2)CC1 [HMC-C-03-B, 2′,4′,6′-Trifluoro-N-((1s,4s)-4-hydroxy-4-methylcyclohexyl)-[1,1′-biphenyl]-4-sulfonamide] | 36 | – | 0.08 | 10.8 | 0.17 | – | – | – | – | – | – | – | – | – | 816* ng·min/mL

From patent publication US9624167B2, “N-(4-hydroxy-4-methyl-cyclohexyl)-4-phenyl-benzenesulfonamides and N-(4-hydroxy-4-methyl-cyclohexyl)-4-(2-pyridyl)benzenesulfonamides and their therapeutic use” (PIMCO 2664 LIMITED, priority 2013, dated 2017)
